Test results from article PMC9732821, “Neurotrophic Activity and Its Modulation by Zinc Ion of a Dimeric Peptide Mimicking the Brain-Derived Neurotrophic Factor N-Terminal Region” (ACS Chemical Neuroscience, 2022).

Key:
undifferentiated cells = conditions: cited from earlier work
Text: Previous functional studies agree in identifying the N-terminal region as a pivotal NT domain for the binding selectivity and activation of Trks.[25]−[27] However, most of these information were obtained from the NGF-TrkA system.[28],[29] On the other hand, the BDNF N-terminal region has been less investigated. […] Mo ...

[1] = system: human neural progenitor cell line (RenVM); assay: neuronal differentiation of Ren cells (β3-tubulin positive fraction); type: cell-based; conditions: 1 μM d-bdnf, four days; BDNF 50 ng/mL comparator
Experimental: Figure 3 Neurite outgrowth stimulated by BDNF and its mimetic peptide ligands. (A) Top, left: schematic timeline of the experiment. SH-SY5Y cells were differentiated for 5 days (d1–5) by addition of retinoic acid (RA, gray bar) in the cell medium. Then, cells were stimulated for 3 days (d6–8) with 150 ng/mL BDNF or different concentrations of its peptide-mimetics (black bar) or left untreated (white bar). On the right and bottom, representative images of the differentiated cells at the end of each treatment. Scale bar 50 μm. (B) Scatter dot plot of the total neurite length, normalized to the number of cell bodies present in each analyzed field. […] For each field, an average of 50–200 cells were counted. […] (C) Representative fluorescence images of DIV3 Ren cells stained with DAPI (blue) and β3-tubulin (green) after differentiation with the standard medium (CTRL), or with the standard medium supplemented with 50 ng/mL BDNF or with 1 μM d-bdnf. […] (D) Column plot of the mean ± SD fraction of β3-tubulin (green) positive on the total cells, counted in the DAPI channel of the analyzed fields (nfields) (CTRL: nfields = 10 and total ncells = 4756; BDNF: nfields = 11 and total ncells = 4330; d-bdnf: nfields = 10 and total ncells = 5619 cells; ****p < 0.0001, *p < 0.05 according to the one-way ANOVA with Dunnett’s multiple comparison test). […]

[2] = potentiometric titration, Zn^2+ complex stability constants; type: binding; conditions: 298 K, 0.1 M KNO3, metal/ligand 0.9:1 to 2.2:1
Experimental: Potentiometric measurements were carried out to give insight into the coordination environment of Zn^2+ bound to the d-bdnf peptide (Figure S5). […] The four protonation equilibria of the aspartic and glutamic residues partly overlap but, in agreement with the literature data, the aspartic β-carboxylic group is more acidic than glutamic γ-carboxylic one.[48] The potentiometric titrations were carried out exploring 0.9:1 and 2.2:1 metal to ligand molar ratio. […] The peptide forms two complex species, [ZnLH] and [ZnL]. The first one is the predominant at pH = 6, and the calculated stability constant value [logK(111) = logβ(111) – logK(011) = 5.71] indicates the involvement of three nitrogen atoms in the metal coordination environment. The [ZnL] species display a stability constant value, logβ = 7.15, higher than that of protonated species indicative of the involvement of a further nitrogen atom in the metal binding mode. In this complex species, Zn^2+ is bound to four nitrogen atoms with the involvement of two amino and two imidazole (2NH2,2NIm coordination mode). […]
Potentiometric measurements
Potentiometric titrations were carried out on a Titrando 905 automatic, using a combined glass-Ag/AgCl electrode (Metrohm, Switzerland). […] To avoid systematic errors and verify reproducibility, the EMF values of each experiment were recorded at different time intervals. The data were analyzed by […]

## HSDPARRGELSV-NH2 [m-bdnf, linear peptide fragment encompassing the first 12 amino acids of the mature NT N-terminal]
Undifferentiated cells
  proliferative capacity: displays proliferative capacity in undifferentiated cells

## HSDPARRGELSVC-C-VSLEGRRAPDSH (disulfide) [d-bdnf]
[1]
  neuronal cell fraction (β3-tubulin positive): significant increase of detected neurons with respect to untreated cells, in a similar way to BDNF
[2]; species ZnLH 110, [ZnL] (2 His, 2 NH2)
  log (Zn2+ complex stability constant): 7.15 (3)
[2]; species ZnLH 111 (2 His, NH2)
  log (Zn2+ complex stability constant): 13.30 (2)
